In test [1] the test system is Guinea-pig ileum strips, histamine-induced contraction. The test can be described thus: Anti-histamine activity in "vitro": histamine-induced spasms of guinea-pig ileum strips. Type of test: cell-based. As to conditions: Cavia porcellus, 5 min, histamine 0.5 mg/liter, 5 minutes incubation, concentration giving significant inhibition (50%) of the contraction. As to the method:
The histamine--(0.5 mg/liter) induced spasms are recorded Kymographically with an isotonic lever giving a 5-fold magnification.

In test [2] the test system is Guinea pigs sensitized to ovalbumin (anaphylactic shock). Description: Anaphylaxis in guinea pigs: protection against death after ovalbumin challenge (survival). As to conditions: Cavia porcellus, estimated ED50, oral, protection against death after i.v. 0.6 mg ovalbumin, read-out: Anaphylaxis in guinea pigs oral effective dose in mg/kg: Survival. Type of test: in vivo, guinea pig. The method, then:
The anti-anaphylactic and antihistaminic effects of the subject compounds (I) and salts thereof are studied "in vivo" in guinea pigs.
Guinea pigs, weighing between 400 and 500 g, are sensitized to ovalbumin by subplantar (s.p.) injection of 0.05 ml of antiserum in the left hind paw. The animals are then starved and orally treated, 24 hours after the sensitization, with saline (=control animals) or a particular dose of the compound under investigation.
The histamine injection (at a dose of 50 μg) was given s.p. in the right hind paw 2 hours after the oral pretreatment with the compound. The diameters of both hind paws are first measured before the histamine injection is given and again 10 minutes thereafter. The animals are challenged intravenously with 0.6 mg of ovalbumin 30 minutes after the histamine injection. All control animals develop typical primary anaphylactic shock symptoms (coughing, difficult breathing, convulsions) and 85% of these control animals die within 15 minutes after the ovalbumin injection. Protection against death is used as the criterion for possible drug effects and the estimated ED50 -value, i.e. the oral dose whereby the protection is observed in 50% of the guinea pigs, is listed in the tables below.

Test [3] deals with histamine paw oedema in guinea pigs. The test can be described thus: Histamine paw oedema in guinea pigs. Type of test: in vivo, guinea pig. As to conditions: Cavia porcellus, oral dose giving paw reaction below 10 units 10 minutes after 50 μg histamine s.p., 2 hours after dosing, read-out: Anaphylaxis in guinea pigs oral effective dose in mg/kg: Histamine oedema. As to the method: Guinea pigs, weighing between 400 and 500 g, are sensitized to ovalbumin by subplantar (s.p.) injection of 0.05 ml of antiserum in the left hind paw. The animals are then starved and orally treated, 24 hours after the sensitization, with saline (=control animals) or a particular dose of the compound under investigation. The histamine injection (at a dose of 50 μg) was given s.p. in the right hind paw 2 hours after the oral pretreatment with the compound.

Where [4] appears, read: Table I-a, read-out: Histamine in "vitro" (ileum) effective conc.
The mark [5] stands for this setting: Table I-b, read-out: Histamine in "vitro" (ileum) effective conc.

For 21 molecules, IC50, ED50 and minimal effective dose results are on record in patent publication US4250176A, “Piperazine derivatives” (priority 1979, dated 1981).

Values after ≈ are worked out from the molar mass of the structure shown. Counter-ions that a name gives are not always drawn. Like-named read-outs stand apart in the source and are kept apart here.

Turning to `C=C(C)n1c(=O)n(CCCN2CCN(C(c3ccccc3)c3ccccc3)CC2)c2ccccc21` [1-{3-[4-(diphenylmethyl)-1-piperazinyl]propyl}-1,3-dihydro-3-(1-methylethenyl)-2H-benzimidazol-2-one], the IC50 in test [1] (setting [4]) was 0.01 µg/mL (≈ 0.0214 µM). In test [2] (Table I-a), the ED50 is 0.16 mg/kg. In addition, the minimal effective dose in test [3] (Table I-a) is 0.31 mg/kg.

In the case of `O=c1n(CO)c2ccccc2n1CCCN1CCN(C(c2ccccc2)c2ccccc2)CC1` [1-{3-[4-(diphenylmethyl)-1-piperazinyl]propyl}-1,3-dihydro-3-(hydroxymethyl)-2H-benzimidazol-2-one], in test [1] (setting [4]), the IC50 stood at 0.01 µg/mL (≈ 0.0219 µM). Also, the ED50 in test [2] (Table I-a) is 0.31 mg/kg. Besides, the minimal effective dose in test [3] (Table I-a) was 0.31 mg/kg.

As to `Cl.Cl.O=c1n(CCCN2CCN(C(c3ccccc3)c3ccccc3)CC2)c2ccccc2n1Cc1ccccc1` [1-{3-[4-(diphenylmethyl)-1-piperazinyl]propyl}-1,3-dihydro-3-(phenylmethyl)-2H-benzimidazol-2-one dihydrochloride], in test [1] (setting [4]), the IC50 was 0.16 µg/mL. The ED50 in test [2] (Table I-a) was 1.25 mg/kg. The minimal effective dose in test [3] (Table I-a) is 1.25 mg/kg.

For `Cn1c(=O)n(CCCN2CCN(C(c3ccccc3)c3ccccc3)CC2)c2ccccc21` [1-{3-[4-(diphenylmethyl)-1-piperazinyl]propyl}-1,3-dihydro-3-methyl-2H-benzimidazol-2-one dihydrochloride. hydrate], the IC50 in test [1] (setting [4]) is 0.01 µg/mL. In addition, in test [2] (Table I-a), the ED50 was 1.25 mg/kg. Also, the minimal effective dose in test [3] (Table I-a) turned out to be 2.5 mg/kg.

On to `O=c1[nH]c2cc(C(F)(F)F)ccc2n1CCCN1CCN(C(c2ccccc2)c2ccccc2)CC1` [1-{3-[4-(diphenylmethyl)-1-piperazinyl]propyl}-1,3-dihydro-5-(trifluoromethyl)-2H-benzimidazol-2-one], for which the IC50 in test [1] (setting [4]) is 0.02 µg/mL (≈ 0.0404 µM). For the same molecule, the ED50 in test [2] (Table I-a) is 0.31 mg/kg. Also, in test [3] (Table I-a), the minimal effective dose came out at 0.31 mg/kg.

For the molecule `Cc1ccc2c(c1)[nH]c(=O)n2CCCN1CCN(C(c2ccccc2)c2ccccc2)CC1` [1-{3-[4-(diphenylmethyl)-1-piperazinyl]propyl}-1,3-dihydro-5-methyl-2H-benzimidazol-2-one], in test [1] (setting [4]), the IC50 turned out to be 0.01 µg/mL (≈ 0.0227 µM). In addition, in test [2] (Table I-a), the ED50 is 0.08 mg/kg. For the same molecule, in test [3] (Table I-a), the minimal effective dose is 0.16 mg/kg.

With `Cc1ccc2[nH]c(=O)n(CCCN3CCN(C(c4ccccc4)c4ccccc4)CC3)c2c1` [1-{3-[4-(diphenylmethyl)-1-piperazinyl]propyl}-1,3-dihydro-6-methyl-2H-benzimidazol-2-one], the IC50 in test [1] (setting [4]) came to 0.01 µg/mL (≈ 0.0227 µM). Besides, in test [2] (Table I-a), the ED50 is 0.16 mg/kg. Further, the minimal effective dose in test [3] (Table I-a) worked out at 0.31 mg/kg.

On to `O=c1[nH]c2ccccc2n1CCCCN1CCC(OC(c2ccccc2)c2ccccc2)CC1` [1-{4-[4-(diphenylmethoxy)-1-piperidinyl]butyl}-1,3-dihydro-2H-benzimidazol-2-one], for which the IC50 in test [1] (Table I-d, read-out: Histamine in "vitro" (ileum) effective dose) is 0.005 µg/mL (≈ 0.011 µM). Besides, in test [2] (Table I-d), the ED50 was 0.63 mg/kg. The minimal effective dose in test [3] (Table I-d) was 0.31 mg/kg.

In the case of `c1ccc(C(c2ccccc2)N2CCN(CCCn3c(C4CCCCC4)nc4ccccc43)CC2)cc1` [2-cyclohexyl-1-{3-[4-(diphenylmethyl)-1-piperazinyl]propyl}-1H-benzimidazole], the IC50 in test [1] (setting [5]) is at least 0.16 µg/mL. Further, in test [2] (Table I-b), the ED50 is 2.5 mg/kg. In test [3] (Table I-b), the minimal effective dose was 2.5 mg/kg.

`O=C(O)Cn1c(=O)n(CCCN2CCN(C(c3ccccc3)c3ccccc3)CC2)c2ccccc21` [3-{3-[4-(diphenylmethyl)-1-piperazinyl]-propyl}-2,3-dihydro-2-oxo-1H-benzimidazole-1-acetic acid hemihydrate]: the IC50 in test [1] (setting [4]) is 0.08 µg/mL. Moreover, the ED50 in test [2] (Table I-a) was below 2.5 mg/kg. Moreover, the minimal effective dose in test [3] (Table I-a) is below 2.5 mg/kg.

In the case of `O=c1[nH]c2cc(Cl)c(Cl)cc2n1CCCN1CCN(C(c2ccccc2)c2ccccc2)CC1` [5,6-dichloro-1-{3-[4-(diphenylmethyl)-1-piperazinyl]propyl}-1,3-dihydro-2H-benzimidazol-2one], the IC50 in test [1] (setting [4]) was at least 0.16 µg/mL. Also, the ED50 in test [2] (Table I-a) was 2.5 mg/kg. Further, the minimal effective dose in test [3] (Table I-a) came to 2.5 mg/kg.

With `O=c1[nH]c2cc(Cl)ccc2n1CCN1CCN(C(c2ccccc2)c2ccccc2)CC1` [5-chloro-1-{2-[4-(diphenylmethyl)-1-piperazinyl]ethyl}-1,3-dihydro-2H-benzimidazol-2-one], the IC50 in test [1] (setting [4]) was determined as 0.01 µg/mL (≈ 0.0224 µM). For the same molecule, in test [2] (Table I-a), the ED50 was 0.63 mg/kg. Moreover, the minimal effective dose in test [3] (Table I-a) is 1.25 mg/kg.

On to `O=c1[nH]c2cc(Cl)ccc2n1CCCN1CCN(C(c2ccccc2)c2ccccc2)CC1` [5-chloro-1-{3-[4-(diphenylmethyl)-1-piperazinyl]propyl}-1,3-dihydro-2H-benzimidazol-2-one], for which, in test [1] (setting [4]), the IC50 is 0.01 µg/mL (≈ 0.0217 µM). Also, the ED50 in test [2] (Table I-a) is 0.63 mg/kg. Besides, the minimal effective dose in test [3] (Table I-a) came to 1.25 mg/kg.

As for `O=c1[nH]c2ccc(Cl)cc2n1CCN1CCN(C(c2ccccc2)c2ccccc2)CC1` [6-chloro-1-{2-[4-(diphenylmethyl)-1-piperazinyl]ethyl}-1,3-dihydro-2H-benzimidazol-2-one], the IC50 in test [1] (setting [4]) is 0.02 µg/mL (≈ 0.0447 µM). For the same molecule, the ED50 in test [2] (Table I-a) is 2.5 mg/kg. For the same molecule, the minimal effective dose in test [3] (Table I-a) was found to be 2.5 mg/kg.

As for `O=c1[nH]c2ccc(Cl)cc2n1CCCN1CCN(C(c2ccccc2)c2ccccc2)CC1` [6-chloro-1-{3-[4-(diphenylmethyl)-1-piperazinyl]propyl}-1,3-dihydro-2H-benzimidazol-2-one], the IC50 in test [1] (setting [4]) worked out at 0.04 µg/mL (≈ 0.0868 µM). Further, the ED50 in test [2] (Table I-a) was 0.63 mg/kg. Further, the minimal effective dose in test [3] (Table I-a) was determined as 0.63 mg/kg.

`O=c1[nH]c2ccccc2n1CCN1CCN(C(c2ccccc2)c2ccccc2)CC1` [I-a: L=H, R1=H, R2=H, (CH2)2, R6=H, R7=H, 1-{2-[4-(diphenylmethyl)-1-piperazinyl]ethyl}-1,3-dihydro-2H-benzimidazol-2-one]: in test [1] (setting [4]), the IC50 was found to be 0.01 µg/mL (≈ 0.0242 µM). Further, the ED50 in test [2] (Table I-a) is 0.63 mg/kg. Besides, in test [3] (Table I-a), the minimal effective dose worked out at 1.25 mg/kg.

As to `O=c1[nH]c2ccccc2n1CCCN1CCN(C(c2ccccc2)c2ccccc2)CC1` [I-a: L=H, R1=H, R2=H, (CH2)3, R6=H, R7=H, 1-{3-[4-(diphenylmethyl)-1-piperazinyl]propyl}-1,3-dihydro-2H-benzimidazol-2-one], the IC50 in test [1] (setting [4]) is 0.005 µg/mL (≈ 0.0117 µM). Moreover, the ED50 in test [2] (Table I-a) was 0.1 mg/kg. In addition, in test [3] (Table I-a), the minimal effective dose is 0.31 mg/kg.

Take `O=c1[nH]c2ccccc2n1CCCCN1CCN(C(c2ccccc2)c2ccccc2)CC1` [I-a: L=H, R1=H, R2=H, (CH2)4, R6=H, R7=H, 1-{4-[4-(diphenylmethyl)-1piperazinyl]butyl}-1,3-dihydro-2H-benzimidazol-2-one]: the IC50 in test [1] (setting [4]) amounted to 0.01 µg/mL (≈ 0.0227 µM). The ED50 in test [2] (Table I-a) is 0.16 mg/kg. The minimal effective dose in test [3] (Table I-a) is 0.31 mg/kg.

Take `O=c1[nH]c2ccccc2n1CCCCCN1CCN(C(c2ccccc2)c2ccccc2)CC1` [I-a: L=H, R1=H, R2=H, (CH2)5, R6=H, R7=H, 1-{5-[4-(diphenylmethyl)-1-piperazinyl]pentyl-1,3-dihydro-2H-benzimidazol-2-one dihydrochloride.hydrate]: the IC50 in test [1] (setting [4]) amounted to 0.01 µg/mL. For the same molecule, the ED50 in test [2] (Table I-a) is 0.63 mg/kg. Further, the minimal effective dose in test [3] (Table I-a) turned out to be 2.5 mg/kg.

As to `O=c1[nH]c2ccccc2n1CCCCCCN1CCN(C(c2ccccc2)c2ccccc2)CC1` [I-a: L=H, R1=H, R2=H, (CH2)6, R6=H, R7=H, 1-{6-[4-(diphenylmethyl)-1-piperazinyl]hexyl}-1,3-dihydro-2H-benzimidazol-2-one], the IC50 in test [1] (setting [4]) came out at 0.01 µg/mL (≈ 0.0213 µM). Besides, the ED50 in test [2] (Table I-a) is 1.25 mg/kg. Moreover, the minimal effective dose in test [3] (Table I-a) stood at 2.5 mg/kg.

As to `CCc1nc2ccccc2n1CCCN1CCN(C(c2ccccc2)c2ccccc2)CC1` [I-b: M=C2H5, R1=H, (CH2)3, R6=H, R7=H, 1-{3-[4-(diphenylmethyl)-1-piperazinyl]propyl}-2-ethyl-1H-benzimidazole trihydrochloride.hydrate], in test [1] (setting [5]), the IC50 is 0.01 µg/mL. Further, the ED50 in test [2] (Table I-b) is 2.5 mg/kg. Further, the minimal effective dose in test [3] (Table I-b) amounted to 2.5 mg/kg.
